These results are taken from patent publication US12528814B2, “Bifunctional degraders of interleukin-1 receptor-associated kinases and therapeutic use thereof” (NURIX THERAPEUTICS, INC., priority 2020, dated 2026).

pIC50: −log10 of the molar value. Like-named read-outs stand apart in the source and are kept apart here.

For test [1], the target named is T1, IRAK4 (Homo sapiens (Human), UniProt Q9NWZ3). As to the kind of experiment: IRAK4 Biochemical HTRF Kinase Assay. The following applies: read-out: IRAK4 HTRF biochemical: IC50. The procedure:
IRAK4 Biochemical HTRF Kinase Assay
The binding capacities of certain bifunctional compounds of Formula (I) were determined using the CisBio HTRF KinEASE STK S1 Kit (#62ST1PEB, contains 5× Kinase buffer, 1× Detection Buffer, anti-phospho-serine/threonine-cryptate, Streptavidin-XL665, and STK-S1), which measures the phosphorylation of a biotinylated peptide substrate by IRAK4, according to the manufacturer's protocol. […] 2 μl of a reaction solution containing 5 μM STK-S1, 10 mM ATP, and 10 mM MgCl2 were added to each well to a final volume of 10 μl. Assay controls include wells containing kinase with no compound (DMSO only) and wells containing no kinase and no compound (DMSO only). The reactions were allowed to proceed at ambient temperature for 90 minutes. […] The plates were incubated for 60 minutes at ambient temperature and then read on an Envision Multilabel Reader (PerkinElmer). […] For IC50 determination, the compounds were tested at sixteen concentrations in duplicate and curve-fitting was performed by non-linear regression analysis using GraphPad Priam.
Target sequence in this assay (Q9NWZ3 whole entry, species assumed): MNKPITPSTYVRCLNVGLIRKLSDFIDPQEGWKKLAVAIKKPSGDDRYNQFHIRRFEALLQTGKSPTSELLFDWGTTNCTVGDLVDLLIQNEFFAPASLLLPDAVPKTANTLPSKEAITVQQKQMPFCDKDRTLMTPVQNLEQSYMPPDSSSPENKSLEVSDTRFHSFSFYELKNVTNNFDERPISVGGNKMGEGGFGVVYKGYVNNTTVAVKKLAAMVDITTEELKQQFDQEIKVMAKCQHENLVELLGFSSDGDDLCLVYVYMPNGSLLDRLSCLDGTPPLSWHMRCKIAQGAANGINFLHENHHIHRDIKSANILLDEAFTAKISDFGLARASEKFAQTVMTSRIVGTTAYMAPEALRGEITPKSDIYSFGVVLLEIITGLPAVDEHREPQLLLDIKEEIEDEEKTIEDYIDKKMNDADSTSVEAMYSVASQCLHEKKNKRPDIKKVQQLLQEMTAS

The target in test [2] is T1, IRAK4. As to the kind of experiment: IRAK4 Degradation HiBiT Assay. The following applies: HiBiT-tagged Jurkat cells, 4 hrs; for Dmax: Jurkat; for DC50: read-out: Cellular IRAK4 HiBiT: DC50.
Target sequence in this assay (Q9NWZ3 whole entry): as the sequence (Q9NWZ3 whole entry, species assumed) above
The mark [3] stands for this setting: read-out: Cellular IRAK4 HiBiT: Dmax, Table 4.
Where [4] appears, read: read-out: Cellular IRAK4 HiBiT: Dmax, Table 5, multiple runs.

For `CN[C@@H](C)C(=O)N[C@H](C(=O)N1C[C@@H](NC(=O)CCCCCCC(=O)N2CCN(c3nnc(-c4cnc(-c5ccc6cc(C#N)cnn56)cc4NC(C)C)s3)CC2)C[C@H]1C(=O)N[C@@H]1CCCc2ccccc21)C1CCCCC1` [Example 52, (2S,4S)-4-(8-(4-(5-(6-(3-cyanopyrrolo[1,2-b]pyridazin-7-yl)-4-(isopropylamino)pyridin-3-yl)-1,3,4-thiadiazol-2-yl)piperazin-1-yl)-8-oxooctanamido)-1-((S)-2-cyclohexyl-2-((S)-2-(methylamino)propanamido)acetyl)-N—((R)-1,2,3,4-tetrahydronaphthalen-1-yl)pyrrolidine-2-carboxamide], the negative logarithm of the IC50 (pIC50) was 8.72 at IRAK4 [1] (Table 4) and 8.72 at IRAK4 [1] (Table 5, multiple runs). The Dmax at IRAK4 [2] (setting [3]) and on IRAK4 [2] (setting [4]) was 70% in each case. In addition, the DC50 at IRAK4 [2] (Table 4) was 422 nM; at IRAK4 [2] (Table 5, multiple runs) it was 422 nM.
`CNc1cc(-c2ccc3cc(C#N)cnn23)ncc1-c1nnc(N2CC3(CCN(C[C@@H]4CCN(c5ccc6c(c5)C(=O)N(C5CCC(=O)NC5=O)C6=O)C4)CC3)C2)s1` (stereo partly drawn) [Example 181, 7-(5-(5-(7-(((3S)-1-(2-(2,6-dioxopiperidin-3-yl)-1,3-dioxoisoindolin-5-yl)pyrrolidin-3-yl)methyl)-2,7-diazaspiro[3.5]nonan-2-yl)-1,3,4-thiadiazol-2-yl)-4-(methylamino)pyridin-2-yl)pyrrolo[1,2-b]pyridazine-3-carbonitrile]: on IRAK4 [1] (Table 5, multiple runs), the pIC50 was 9.22. For the same compound, at IRAK4 [2] (setting [4]), the Dmax stood at 41%. Also, the DC50 at IRAK4 [2] (Table 5, multiple runs) came to 6.94 nM.
Regarding `CNc1cc(-c2ccc3cc(C#N)cnn23)ncc1-c1nnc([C@H]2CC[C@H](NC(=O)CCC(=O)N[C@H](C(=O)N3C[C@H](O)C[C@H]3C(=O)N[C@@H](C)c3ccc(Br)cc3)C(C)(C)C)CC2)s1` [Example 172, N1—((S)-1-((2S,4R)-2-(((S)-1-(4-bromophenyl)ethyl)carbamoyl)-4-hydroxypyrrolidin-1-yl)-3,3-dimethyl-1-oxobutan-2-yl)-N4-((1r,4S)-4-(5-(6-(3-cyanopyrrolo[1,2-b]pyridazin-7-yl)-4-(methylamino)pyridin-3-yl)-1,3,4-thiadiazol-2-yl)cyclohexyl)succinamide], at IRAK4 [1] (Table 5, multiple runs), the pIC50 is 8.82. The Dmax at IRAK4 [2] (setting [4]) is 28%. Further, on IRAK4 [2] (Table 5, multiple runs), the DC50 turned out to be 2520 nM.
Consider `CNc1cc(-c2ccc3cc(C#N)cnn23)ncc1-c1nnc([C@H]2CC[C@H](NC(=O)CCC(=O)N[C@H](C(=O)N3C[C@H](O)C[C@H]3C(=O)N[C@@H](C)c3ccccc3)C(C)(C)C)CC2)s1` [Example 173, N1-((1r,4S)-4-(5-(6-(3-cyanopyrrolo[1,2-b]pyridazin-7-yl)-4-(methylamino)pyridin-3-yl)-1,3,4-thiadiazol-2-yl)cyclohexyl)-N4—((S)-1-((2S,4R)-4-hydroxy-2-(((S)-1-phenylethyl)carbamoyl)pyrrolidin-1-yl)-3,3-dimethyl-1-oxobutan-2-yl)succinamide], for which the pIC50 on IRAK4 [1] (Table 5, multiple runs) is 9.40. The Dmax on IRAK4 [2] (setting [4]) is 16%. Also, the DC50 on IRAK4 [2] (Table 5, multiple runs) was determined as 612 nM.
Take `CNc1cc(-c2ccc3cc(C#N)cnn23)ncc1-c1nnc(C23CCC(NC(=O)CCOCCC(=O)N[C@H](C(=O)N4C[C@H](O)C[C@H]4C(=O)NCc4ccc(-c5scnc5C)cc4)C(C)(C)C)(CC2)CC3)s1` [Example 129]: the negative-log IC50 (pIC50) at IRAK4 [1] (Table 5, multiple runs) is 8.92. In addition, the Dmax at IRAK4 [2] (setting [4]) came to 115%. Besides, the DC50 at IRAK4 [2] (Table 5, multiple runs) was determined as 356 nM.
`CNc1cc(-c2ccc3cc(C#N)cnn23)ncc1-c1nnc(C23CCC(NC(=O)CCCCCNc4cccc5c4C(=O)N(C4CCC(=O)NC4=O)C5=O)(CC2)CC3)s1` (centres unmarked) [Example 106, N-(4-(5-(6-(3-cyanopyrrolo[1,2-b]pyridazin-7-yl)-4-(methylamino)pyridin-3-yl)-1,3,4-thiadiazol-2-yl)bicyclo[2.2.2]octan-1-yl)-6-((2-(2,6-dioxopiperidin-3-yl)-1,3-dioxoisoindolin-4-yl)amino)hexanamide]: on IRAK4 [1] (Table 5, multiple runs), the pIC50 was 8.70. Moreover, the Dmax at IRAK4 [2] (setting [4]) was 45%. Also, the DC50 on IRAK4 [2] (Table 5, multiple runs) was determined as 43.8 nM.
Consider `CC(C)Nc1cc(-c2ccc3cc(C#N)cnn23)ncc1-c1nnc([C@H]2CC[C@H](NC(=O)CCOCCOCCNc3cccc4c3C(=O)N(C3CCC(=O)NC3=O)C4=O)CC2)s1` (some centres unmarked) [Example 3, N-((1r,4r)-4-(5-(6-(3-cyanopyrrolo[1,2-b]pyridazin-7-yl)-4-(isopropylamino)pyridin-3-yl)-1,3,4-thiadiazol-2-yl)cyclohexyl)-3-(2-(2-((2-(2,6-dioxopiperidin-3-yl)-1,3-dioxoisoindolin-4-yl)amino)ethoxy)ethoxy)propanamide], for which the pIC50 is 8.64 on IRAK4 [1] (Table 4) and 8.72 at IRAK4 [1] (Table 5, multiple runs). Besides, the values for the Dmax at IRAK4 [2] (setting [3]) and on IRAK4 [2] (setting [4]) were 91% and 90%, respectively. For the same compound, the DC50 on IRAK4 [2] (Table 4) worked out at 32 nM; at IRAK4 [2] (Table 5, multiple runs), 30.1 nM.
Consider `CNc1cc(-c2ccc3cc(C#N)cnn23)ncc1-c1nnc(C23CCC(NC(=O)CCCCCCCNc4ccc5c(c4)C(=O)N(C4CCC(=O)NC4=O)C5=O)(CC2)CC3)s1` (centres unmarked) [Example 107, N-(4-(5-(6-(3-cyanopyrrolo[1,2-b]pyridazin-7-yl)-4-(methylamino)pyridin-3-yl)-1,3,4-thiadiazol-2-yl)bicyclo[2.2.2]octan-1-yl)-8-((2-(2,6-dioxopiperidin-3-yl)-1,3-dioxoisoindolin-5-yl)amino)octanamide], for which the pIC50 at IRAK4 [1] (Table 5, multiple runs) was 8.59. Moreover, the Dmax on IRAK4 [2] (setting [4]) worked out at 44%. Further, the DC50 on IRAK4 [2] (Table 5, multiple runs) was 99.7 nM.
On to `CNc1cc(-c2ccc3cc(C#N)cnn23)ncc1-c1nnc([C@H]2CC[C@@H](NC(=O)CCCCCNc3cccc4c3C(=O)N(C3CCC(=O)NC3=O)C4=O)CC2)s1` (some centres unmarked) [Example 120, N-((1s,4s)-4-(5-(6-(3-cyanopyrrolo[1,2-b]pyridazin-7-yl)-4-(methylamino)pyridin-3-yl)-1,3,4-thiadiazol-2-yl)cyclohexyl)-6-((2-(2,6-dioxopiperidin-3-yl)-1,3-dioxoisoindolin-4-yl)amino)hexanamide], for which the negative-log IC50 (pIC50) at IRAK4 [1] (Table 5, multiple runs) was 8.96. Moreover, at IRAK4 [2] (Table 5, multiple runs), the “Cellular IRAK4 HiBiT: Dmax” value came out at 32% and the DC50 is 33.4 nM.
On to `CNc1cc(-c2ccc3cc(C#N)cnn23)ncc1-c1nnc(N2CC3CCC(C2)N3C2CCN(C(=O)Cc3ccc4c(c3)CN(C3CCC(=O)NC3=O)C4=O)CC2)s1` (centres unmarked) [Example 164, 7-(5-(5-(8-(1-(2-(2-(2,6-dioxopiperidin-3-yl)-1-oxoisoindolin-5-yl)acetyl)piperidin-4-yl)-3,8-diazabicyclo[3.2.1]octan-3-yl)-1,3,4-thiadiazol-2-yl)-4-(methylamino)pyridin-2-yl)pyrrolo[1,2-b]pyridazine-3-carbonitrile], for which the pIC50 on IRAK4 [1] (Table 5, multiple runs) is 9.40. Also, the Dmax at IRAK4 [2] (setting [4]) worked out at 109%. Further, at IRAK4 [2] (Table 5, multiple runs), the DC50 was found to be 5.64 nM.
On to `CNc1cc(-c2ccc3cc(C#N)cnn23)ncc1-c1nnc(N2CCN(C(=O)N3CCN(Cc4ccc5c(c4)C(=O)N(C4CCC(=O)NC4=O)C5=O)CC3)CC2)s1` (centres unmarked) [Example 156, 7-(5-(5-(4-(4-((2-(2,6-dioxopiperidin-3-yl)-1,3-dioxoisoindolin-5-yl)methyl)piperazine-1-carbonyl)piperazin-1-yl)-1,3,4-thiadiazol-2-yl)-4-(methylamino)pyridin-2-yl)pyrrolo[1,2-b]pyridazine-3-carbonitrile], for which, on IRAK4 [1] (Table 5, multiple runs), the pIC50 was 9.10. In addition, the Dmax at IRAK4 [2] (setting [4]) came to 109%. Also, the DC50 at IRAK4 [2] (Table 5, multiple runs) was 15.5 nM.
For the compound `CNc1cc(-c2ccc3cc(C#N)cnn23)ncc1-c1nnc([C@H]2CC[C@H](NC(=O)CCC(=O)N[C@H](C(=O)N3C[C@@H](O)C[C@H]3C(=O)NCc3ccc(-c4scnc4C)cc3)C(C)(C)C)CC2)s1` [Example 151, N1-((1r,4S)-4-(5-(6-(3-cyanopyrrolo[1,2-b]pyridazin-7-yl)-4-(methylamino)pyridin-3-yl)-1,3,4-thiadiazol-2-yl)cyclohexyl)-N4—((S)-1-((2S,4S)-4-hydroxy-2-((4-(4-methylthiazol-5-yl)benzyl)carbamoyl)pyrrolidin-1-yl)-3,3-dimethyl-1-oxobutan-2-yl)succinamide], at IRAK4 [1] (Table 5, multiple runs), the negative-log IC50 (pIC50) is 9.05. Moreover, the half-maximal degradation concentration (DC50) on IRAK4 [2] (Table 5, multiple runs) was > 6980 nM.
On to `Cc1ncsc1-c1ccc(CNC(=O)[C@@H]2C[C@@H](O)CN2C(=O)[C@@H](NC(=O)C2(F)CC2)C(C)(C)C)c(OCCCCCC(=O)N2CCN(c3nnc(-c4cnc(-c5ccc6cc(C#N)cnn56)cc4NC(C)C)s3)CC2)c1` [Example 42, (2S,4R)—N-(2-((6-(4-(5-(6-(3-cyanopyrrolo[1,2-b]pyridazin-7-yl)-4-(isopropylamino)pyridin-3-yl)-1,3,4-thiadiazol-2-yl)piperazin-1-yl)-6-oxohexyl)oxy)-4-(4-methylthiazol-5-yl)benzyl)-1-((S)-2-(1-fluorocyclopropane-1-carboxamido)-3,3-dimethylbutanoyl)-4-hydroxypyrrolidine-2-carboxamide], for which the pIC50 was 7.76 at IRAK4 [1] (Table 4) and 7.76 on IRAK4 [1] (Table 5, multiple runs). Besides, the Dmax on IRAK4 [2] (setting [3]) and on IRAK4 [2] (setting [4]) was 104% each time. In addition, the DC50 at IRAK4 [2] (Table 4) is 336 nM; at IRAK4 [2] (Table 5, multiple runs), 315 nM.
